Values after ≈ are worked out from the molar mass of the structure shown.
Key:
[1] = system: Plasmodium falciparum; assay: Antimalarial activity against Plasmodium falciparum 3D7 assessed as inhibition of parasitemia incubated for 72 hrs by fluorescence based assay; assay type: functional, organism-based; settings: 3D7, 72 h
[2] = Inhibition of Plasmodium falciparum SR21
[3] = system: Plasmodium falciparum; assay: Antiplasmodial activity against CQ-sensitive Plasmodium falciparum F32 Tanzania assessed as parasite growth inhibition incubated for 48 hrs; assay type: functional, organism-based
[4] = Cytotoxicity against African green monkey Vero cells; assay type: toxicity, cell-based; settings: chlorocebus sabaeus
[5] = system: Plasmodium falciparum; assay: Antiplasmodial activity against CQ-sensitive Plasmodium falciparum NF54; assay type: functional, organism-based
[6] = system: Plasmodium falciparum; assay: Antiplasmodial activity against CQ-sensitive Plasmodium falciparum NF54 at asexual stage assessed as parasite growth inhibition; assay type: functional, organism-based
[7] = system: Plasmodium falciparum; assay: Antiplasmodial activity against Plasmodium falciparum K1 at asexual stage assessed as parasite growth inhibition; assay type: functional, organism-based
[8] = system: Plasmodium falciparum; assay: Antimalarial activity against Plasmodium falciparum 3D7 assessed as inhibition of parasite proliferation; assay type: functional, organism-based
[9] = system: Plasmodium falciparum; assay: Antiplasmodial activity against CQ-resistant Plasmodium falciparum W2 assessed as parasite growth inhibition incubated for 72 hrs by SYBR Green I staining based analysis; assay type: functional, organism-based; settings: W2, 72 h
[10] = system: Plasmodium falciparum; assay: Antiplasmodial activity against CQ-susceptible Plasmodium falciparum 3D7 assessed as parasite growth inhibition incubated for 72 hrs by SYBR Green I staining based analysis; assay type: functional, organism-based; settings: 3D7, 72 h
[11] = system: Plasmodium falciparum; assay: Antimalarial activity against CQ-resistant Plasmodium falciparum K1 infected in human O+ erythrocytes assessed as parasite growth inhibition incubated for 48 hrs by SYBR Green I staining based analysis; assay type: functional, organism-based; settings: K1, Erythrocyte
[12] = system: Plasmodium falciparum; assay: Antimalarial activity against CQ-sensitive Plasmodium falciparum 3D7 infected in human O+ erythrocytes assessed as parasite growth inhibition incubated for 48 hrs by SYBR Green I staining based analysis; assay type: functional, organism-based; settings: 3D7, Erythrocyte
[13] = system: Plasmodium falciparum; assay: Antimalarial activity against Plasmodium falciparum 3D7 at asexual stage infected in erythrocytes assessed as parasite growth inhibition incubated for 72 hrs by MSF assay; assay type: functional, organism-based; settings: 3D7, Erythrocyte
[14] = system: Plasmodium falciparum; assay: Antimalarial activity against Plasmodium falciparum W2 assessed as parasite growth inhibition; assay type: functional, organism-based
[15] = system: Plasmodium falciparum; assay: Antiplasmodial activity against Plasmodium falciparum 3D7 at asexual erythrocytic stage infected in human erythrocytes assessed as parasite growth inhibition incubated for 42 hrs by [3H]-hypoxanthine incorporation assay; assay type: functional, organism-based; settings: 3D7, Erythrocyte
[16] = system: Plasmodium falciparum; assay: Antimalarial activity against CQ-resistant Plasmodium falciparum W2 assessed as parasite growth inhibition by LDH assay; assay type: functional, organism-based
[17] = system: Plasmodium falciparum; assay: Antimalarial activity against CQ-sensitive Plasmodium falciparum D6 assessed as parasite growth inhibition by LDH assay; assay type: functional, organism-based
[18] = system: Plasmodium falciparum; assay: Antimalarial activity against Plasmodium falciparum […] incubated for 48 hrs; assay type: functional, organism-based
[19] = system: Plasmodium falciparum; assay: Antimalarial activity against Plasmodium falciparum 3D7 infected in erythrocytes assessed as parasite growth inhibition incubated for 42 hrs by [3H]-hypoxanthine incorporation assay; assay type: functional, organism-based; settings: 3D7, Erythrocyte

Work on `Clc1cc(Cl)cc(-n2cc(/C=N/Nc3ccc(Br)cc3)nn2)c1` yielded an IC50 [1] of 29.3 µM and an IC50 [2] of 12.4 µM.
With `NC1=C(n2cc(COC3=CC(=O)c4ccccc4C3=O)nn2)C(=O)c2ccccc2C1=O` the IC50 [3] was > 20 µM.
`CC1(C)[C@@H](O)CC[C@]2(C)[C@H]3C(=O)C=C4[C@@H]5C[C@@](C)(C(=O)OCc6cn(-c7ccc(O)cc7[N+](=O)[O-])nn6)CC[C@]5(C)CC[C@@]4(C)[C@]3(C)CC[C@@H]12` gave a CC50 [4] of 253 µM and an IC50 [5] of 0.47 µM.
For `COC(=O)C1=C(Cn2cc(CNc3ccnc4cc(Cl)ccc34)nn2)N(C)C(=O)NC1c1ccc(F)cc1` (stereo not given), the IC50 [6] was 0.138 µM and the IC50 [7] was 0.498 µM.
With `CCCCn1cc(COC2=CC(=O)c3ccccc3C2=O)nn1` the IC50 [3] was 11.2 µM.
For `CCCCCn1nncc1CCNC(=O)[C@H](O)C(C)(C)CO`, the IC50 [8] was > 100 µM.
In the case of `Cc1ccc(-n2cc(COC(=O)[C@@]3(C)CC[C@]4(C)CC[C@]5(C)C(=CC(=O)[C@@H]6[C@@]7(C)CC[C@H](O)C(C)(C)[C@@H]7CC[C@]65C)[C@@H]4C3)nn2)cc1Cl`, the CC50 [4] is reported as 377 µM and the IC50 [5] is reported as 4.03 µM.
Work on `CCOC(=O)c1cn(-c2ccccc2)nn1` yielded an IC50 [1] of 12.8 µM.
With `COC(=O)C1=C(Cn2cc(CNc3ccnc4cc(Cl)ccc34)nn2)NC(=O)NC1c1ccc(OC)cc1` (stereo not given) the IC50 [6] was 0.245 µM and the IC50 [7] was 0.567 µM.
Work on `OB1OCc2cc(OCc3cn(-c4ccnc5ccc(Cl)cc45)nn3)ccc21` yielded an IC50 [9] of 5.22 µM and an IC50 [10] of 4.87 µM.
For `CCCCCCCCCC(=O)OCc1cn(-c2ccc(Cl)cc2)nn1`, the IC50 [1] was 2.8 µM and the IC50 [2] was 1.55 µM.
Work on `Clc1cccc(-n2cc(-c3cncc4ccccc34)nn2)c1` yielded an IC50 [11] of 95.8 µM and an IC50 [12] of 365 µM.
Molecule `Clc1ccc2c(-c3cn(CC(c4ccccc4)c4ccccc4)nn3)ccnc2c1` has an IC50 [11] of 72 µM and an IC50 [12] of 91.8 µM.
Molecule `Clc1ccc(N/N=C/c2cnn(-c3ccccc3)n2)cc1` has an IC50 [1] of 9.29 µM.
In the case of `CC(C)(C)c1ccc(Cn2cc(-c3cccc4ccccc34)nn2)cc1`, the IC50 [11] is reported as 42.2 µM and the IC50 [12] is reported as 36.9 µM.
Work on `COC(=O)c1ccccc1-c1ccc(Cn2cc(-c3cncc4ccccc34)nn2)cc1` yielded an IC50 [11] of 52 µM and an IC50 [12] of 35.8 µM.
With `CC(C)(CO)[C@@H](O)C(=O)NCCc1cn(CCc2ccccc2)nn1` the IC50 [8] was 5.4 µM.
`CCCCCn1nncc1CNC(=O)[C@H](O)C(C)(C)CO` showed an IC50 [8] of 36 µM.
Work on `CCCCCCCCCCCn1cc(COC2=CC(=O)c3ccccc3C2=O)nn1` yielded an IC50 [3] of 17 µM.
With `O=C(Cn1cc(-c2ccccc2)nn1)NCCCNc1ccnc2cc(Cl)ccc12` the IC50 [13] was 0.137 µM.
For `CC1(C)[C@@H](O)CC[C@]2(C)[C@H]3C(=O)C=C4[C@@H]5C[C@@](C)(C(=O)OCc6cn(-c7ccc(Cl)cc7)nn6)CC[C@]5(C)CC[C@@]4(C)[C@]3(C)CC[C@@H]12`, the CC50 [4] was 391 µM and the IC50 [5] was 0.48 µM.
Molecule `C=C[C@H]1CN2CC[C@H]1C[C@H]2[C@H](c1ccnc2ccccc12)n1cc(CCC)nn1` has an IC50 [14] of 1.99 µM.
In the case of `O=S(=O)(c1ccc(-n2cc(COc3ccccc3)nn2)cc1)N1CCCCC1`, the IC50 [15] is reported as > 50 µg/mL.
In the case of `COC(=O)C1=C(Cn2cc(CNc3ccnc4cc(Cl)ccc34)nn2)N(C)C(=O)NC1c1ccc(OC)cc1` (stereo not given), the IC50 [6] is reported as 0.18 µM and the IC50 [7] is reported as 0.422 µM.
Molecule `O=C1c2nnn(Cc3cccc(Cl)c3)c2C(=O)c2nnn(Cc3cccc(Cl)c3)c21` has an IC50 [16] of 7.61 µM and an IC50 [17] of 6.32 µM.
Work on `C=C[C@H]1CN2CC[C@H]1C[C@H]2[C@H](c1ccnc2ccccc12)n1cc(-c2ccccc2)nn1` yielded an IC50 [14] of 4.65 µM.
Work on `CC(=O)c1cccc(-n2cc(COC(=O)[C@@]3(C)CC[C@]4(C)CC[C@]5(C)C(=CC(=O)[C@@H]6[C@@]7(C)CC[C@H](O)C(C)(C)[C@@H]7CC[C@]65C)[C@@H]4C3)nn2)c1` yielded a CC50 [4] of 213 µM and an IC50 [5] of 3.5 µM.
`Cc1nn(-c2ccccc2)c(-n2cncn2)c1-c1cc(-c2cc[nH]c2)nc2nc3ccccc3n12` gave an IC50 [18] of 0.092 µg/mL (≈ 0.201 µM).
For `CC1(C)[C@@H](O)CC[C@]2(C)[C@H]3C(=O)C=C4[C@@H]5C[C@@](C)(C(=O)OCc6cn(-c7ccc([N+](=O)[O-])cc7)nn6)CC[C@]5(C)CC[C@@]4(C)[C@]3(C)CC[C@@H]12`, the CC50 [4] was 175 µM and the IC50 [5] was 2.71 µM.
`COc1ccc2cc3[n+](cc2c1OCc1cn(-c2ccc(S(=O)(=O)N4CCCCC4)cc2)nn1)CCc1cc2c(cc1-3)OCO2.[Cl-]` showed an IC50 [19] of 0.8 µg/mL.
Work on `CCCCn1cc(CCNC(=O)[C@H](O)C(C)(C)CO)nn1` yielded an IC50 [8] of 3.3 µM.
In the case of `O=C1C=C(OCc2cn(-c3ccc(S)cc3)nn2)C(=O)c2ccccc21`, the IC50 [3] is reported as > 20 µM.
`O=C1C=C(OCc2cn(C3=CC(=O)c4ccccc4C3=O)nn2)C(=O)c2ccccc21` showed an IC50 [3] of 1.9 µM.
In the case of `COc1ccc2cc3[n+](cc2c1OCc1cn(-c2ccc(S(=O)(=O)Nc4ccc([N+](=O)[O-])cc4)cc2)nn1)CCc1cc2c(cc1-3)OCO2.Cl`, the IC50 [19] is reported as 20 µg/mL.
